Reference: PubChem BioAssay AID2060887 (Molecular Pharmacology Branch, DTP, NCI, 2025)

Tested on: 782815-120-R-J1-PDC complex spheroid viability
Experiment: Anticancer human tumor 782815-120-R-J1-PDC patient-derived colon adenocarcinoma cell line growth inhibition [RAS]
Settings: for IC50: curve of first compound; for viability, T/C: stronger effect = lower value
Outline: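 Tumour cells grown as complex spheroids with HUVEC endothelial cells and mesenchymal stem cells, treated with RAS pathway inhibitor combinations. Each agent spans half-log steps from near clinical Cmax, or 10 microM where Cmax is unknown.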
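Note: spheroids exposed to compounds for 7 days before reading.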
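Throughout, for viability, T/C: 100% = DMSO vehicle control viability.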

**Q.** How did the IC50 (second compound 0.000949 µM) turn out when CCc1c2c(nc3ccc(O)cc13)-c1cc3c(c(=O)n1C2)COC(=O)[C@]3(O)CC + CCn1c(-c2cc(N3CCN(C)CC3)cnc2C(C)OC)c2c3cc(ccc31)-c1csc(n1)CC(NC(=O)C1CC1C)C(=O)N1CCCC(N1)C(=O)OCC(C)(C)C2 was run?
**A.** 2.4 nM

**Q.** And the IC50 (second compound 0.003 µM)?
**A.** 1.92 nM

**Q.** And the IC50 (second compound 0.00949 µM)?
**A.** < 0.949 nM

**Q.** And the IC50 (second compound 0.03 µM)?
**A.** < 0.949 nM

**Q.** What about the IC50 (second compound 0.0949 µM) of the same compound?
**A.** < 0.949 nM

**Q.** And the IC50 (second compound 0.3 µM)?
**A.** < 0.949 nM

**Q.** And the viability, T/C (second compound 0.000949 µM, first compound 0.000949 µM)?
**A.** 70.4%

**Q.** What about the viability, T/C (second compound 0.000949 µM, first compound 0.003 µM) of the same compound?
**A.** 45.9%

**Q.** What about the viability, T/C (second compound 0.000949 µM, first compound 0.00949 µM) of the same compound?
**A.** 19.8%

**Q.** And the viability, T/C (second compound 0.000949 µM, first compound 0.03 µM)?
**A.** 10.8%

**Q.** What about the viability, T/C (second compound 0.000949 µM, first compound 0.0949 µM) of the same compound?
**A.** 3.9%

**Q.** What about the viability, T/C (second compound 0.000949 µM, first compound 0.3 µM) of the same compound?
**A.** 1.57%

**Q.** And the viability, T/C (second compound 0.003 µM, first compound 0.000949 µM)?
**A.** 66.6%

**Q.** And the viability, T/C (second compound 0.003 µM, first compound 0.003 µM)?
**A.** 38.8%

**Q.** What about the viability, T/C (second compound 0.003 µM, first compound 0.00949 µM) of the same compound?
**A.** 23.4%

**Q.** And the viability, T/C (second compound 0.003 µM, first compound 0.03 µM)?
**A.** 12.9%

**Q.** What about the viability, T/C (second compound 0.003 µM, first compound 0.0949 µM) of the same compound?
**A.** 4.38%

**Q.** And the viability, T/C (second compound 0.003 µM, first compound 0.3 µM)?
**A.** 1.89%

**Q.** What about the viability, T/C (second compound 0.00949 µM, first compound 0.000949 µM) of the same compound?
**A.** 32.7%

**Q.** What about the viability, T/C (second compound 0.00949 µM, first compound 0.003 µM) of the same compound?
**A.** 28.5%

**Q.** And the viability, T/C (second compound 0.00949 µM, first compound 0.00949 µM)?
**A.** 15.4%

**Q.** What about the viability, T/C (second compound 0.00949 µM, first compound 0.03 µM) of the same compound?
**A.** 12.7%

**Q.** What about the viability, T/C (second compound 0.00949 µM, first compound 0.0949 µM) of the same compound?
**A.** 7.05%

**Q.** And the viability, T/C (second compound 0.00949 µM, first compound 0.3 µM)?
**A.** 1.84%

**Q.** And the viability, T/C (second compound 0.03 µM, first compound 0.000949 µM)?
**A.** 19.6%

**Q.** What about the viability, T/C (second compound 0.03 µM, first compound 0.003 µM) of the same compound?
**A.** 16.7%

**Q.** What about the viability, T/C (second compound 0.03 µM, first compound 0.00949 µM) of the same compound?
**A.** 11.7%

**Q.** What about the viability, T/C (second compound 0.03 µM, first compound 0.03 µM) of the same compound?
**A.** 10.4%

**Q.** What about the viability, T/C (second compound 0.03 µM, first compound 0.0949 µM) of the same compound?
**A.** 6.53%

**Q.** And the viability, T/C (second compound 0.03 µM, first compound 0.3 µM)?
**A.** 1.73%

**Q.** And the viability, T/C (second compound 0.0949 µM, first compound 0.000949 µM)?
**A.** 15.5%

**Q.** And the viability, T/C (second compound 0.0949 µM, first compound 0.003 µM)?
**A.** 16.3%

**Q.** What about the viability, T/C (second compound 0.0949 µM, first compound 0.00949 µM) of the same compound?
**A.** 11.7%

**Q.** What about the viability, T/C (second compound 0.0949 µM, first compound 0.03 µM) of the same compound?
**A.** 10.5%

**Q.** What about the viability, T/C (second compound 0.0949 µM, first compound 0.0949 µM) of the same compound?
**A.** 7.5%

**Q.** And the viability, T/C (second compound 0.0949 µM, first compound 0.3 µM)?
**A.** 0.75%

**Q.** What about the viability, T/C (second compound 0.3 µM, first compound 0.000949 µM) of the same compound?
**A.** 14.3%

**Q.** And the viability, T/C (second compound 0.3 µM, first compound 0.003 µM)?
**A.** 13.6%

**Q.** And the viability, T/C (second compound 0.3 µM, first compound 0.00949 µM)?
**A.** 10.7%

**Q.** And the viability, T/C (second compound 0.3 µM, first compound 0.03 µM)?
**A.** 13.1%

**Q.** And the viability, T/C (second compound 0.3 µM, first compound 0.0949 µM)?
**A.** 7.92%

**Q.** And the viability, T/C (second compound 0.3 µM, first compound 0.3 µM)?
**A.** 1.5%

**Q.** For C=CC(=O)Nc1cc(Nc2nccc(-c3cn(C)c4ccccc34)n2)c(OC)cc1N(C)CCN(C)C + CCn1c(-c2cccnc2C(C)OC)c2c3cc(ccc31)N1CCOC(CC(NC(=O)C(C(C)C)N(C)C(=O)C3(F)CCN(C(=O)C#CC(C)(C)N(C)C)CC3)C(=O)N3CCCC(N3)C(=O)OCC(C)(C)C2)C1, which IC50 (second compound 0.000949 µM) is on record?
**A.** > 1000 nM

**Q.** What about the IC50 (second compound 0.003 µM) of the same compound?
**A.** > 1000 nM

**Q.** And the IC50 (second compound 0.00949 µM)?
**A.** > 1000 nM

**Q.** And the IC50 (second compound 0.03 µM)?
**A.** > 1000 nM

**Q.** And the IC50 (second compound 0.0949 µM)?
**A.** > 1000 nM

**Q.** What about the IC50 (second compound 0.3 µM) of the same compound?
**A.** > 1000 nM

**Q.** What about the viability, T/C (second compound 0.000949 µM, first compound 0.00316 µM) of the same compound?
**A.** 102%

**Q.** What about the viability, T/C (second compound 0.000949 µM, first compound 0.01 µM) of the same compound?
**A.** 97.7%

**Q.** What about the viability, T/C (second compound 0.000949 µM, first compound 0.0316 µM) of the same compound?
**A.** 99.6%

**Q.** And the viability, T/C (second compound 0.000949 µM, first compound 0.1 µM)?
**A.** 103%

**Q.** And the viability, T/C (second compound 0.000949 µM, first compound 0.316 µM)?
**A.** 87.2%

**Q.** What about the viability, T/C (second compound 0.000949 µM, first compound 1 µM) of the same compound?
**A.** 84%

**Q.** And the viability, T/C (second compound 0.003 µM, first compound 0.00316 µM)?
**A.** 102%

**Q.** And the viability, T/C (second compound 0.003 µM, first compound 0.01 µM)?
**A.** 91.1%

**Q.** What about the viability, T/C (second compound 0.003 µM, first compound 0.0316 µM) of the same compound?
**A.** 90.9%

**Q.** What about the viability, T/C (second compound 0.003 µM, first compound 0.1 µM) of the same compound?
**A.** 91.9%

**Q.** What about the viability, T/C (second compound 0.003 µM, first compound 0.316 µM) of the same compound?
**A.** 93.8%

**Q.** What about the viability, T/C (second compound 0.003 µM, first compound 1 µM) of the same compound?
**A.** 83.2%

**Q.** And the viability, T/C (second compound 0.00949 µM, first compound 0.00316 µM)?
**A.** 96.9%

**Q.** What about the viability, T/C (second compound 0.00949 µM, first compound 0.01 µM) of the same compound?
**A.** 92.8%

**Q.** What about the viability, T/C (second compound 0.00949 µM, first compound 0.0316 µM) of the same compound?
**A.** 94.2%

**Q.** What about the viability, T/C (second compound 0.00949 µM, first compound 0.1 µM) of the same compound?
**A.** 96.5%

**Q.** What about the viability, T/C (second compound 0.00949 µM, first compound 0.316 µM) of the same compound?
**A.** 100%

**Q.** What about the viability, T/C (second compound 0.00949 µM, first compound 1 µM) of the same compound?
**A.** 84.3%

**Q.** What about the viability, T/C (second compound 0.03 µM, first compound 0.00316 µM) of the same compound?
**A.** 86.4%

**Q.** And the viability, T/C (second compound 0.03 µM, first compound 0.01 µM)?
**A.** 92.8%

**Q.** What about the viability, T/C (second compound 0.03 µM, first compound 0.0316 µM) of the same compound?
**A.** 96.3%

**Q.** And the viability, T/C (second compound 0.03 µM, first compound 0.1 µM)?
**A.** 86.4%

**Q.** What about the viability, T/C (second compound 0.03 µM, first compound 0.316 µM) of the same compound?
**A.** 93%

**Q.** And the viability, T/C (second compound 0.03 µM, first compound 1 µM)?
**A.** 86.1%

**Q.** What about the viability, T/C (second compound 0.0949 µM, first compound 0.00316 µM) of the same compound?
**A.** 94.2%

**Q.** And the viability, T/C (second compound 0.0949 µM, first compound 0.01 µM)?
**A.** 94.8%

**Q.** And the viability, T/C (second compound 0.0949 µM, first compound 0.0316 µM)?
**A.** 85.3%

**Q.** What about the viability, T/C (second compound 0.0949 µM, first compound 0.1 µM) of the same compound?
**A.** 97.3%

**Q.** And the viability, T/C (second compound 0.0949 µM, first compound 0.316 µM)?
**A.** 106%

**Q.** What about the viability, T/C (second compound 0.0949 µM, first compound 1 µM) of the same compound?
**A.** 86.4%

**Q.** And the viability, T/C (second compound 0.3 µM, first compound 0.00316 µM)?
**A.** 85.1%

**Q.** What about the viability, T/C (second compound 0.3 µM, first compound 0.01 µM) of the same compound?
**A.** 88%

**Q.** And the viability, T/C (second compound 0.3 µM, first compound 0.0316 µM)?
**A.** 96.7%

**Q.** And the viability, T/C (second compound 0.3 µM, first compound 0.1 µM)?
**A.** 88.7%

**Q.** What about the viability, T/C (second compound 0.3 µM, first compound 0.316 µM) of the same compound?
**A.** 97%

**Q.** And the viability, T/C (second compound 0.3 µM, first compound 1 µM)?
**A.** 73.8%
